The values that follow come from PubChem BioAssay (NCI).

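48-hour exposure; five concentrations; linearly interpolated endpoints. TGI is the concentration that stops growth completely.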 Where a SMILES comes first, the peptide text is derived from it. [ ]: non-standard residue; d: D form. Hiv = CC(C)[C@H](O)C(=O)O

Assay in all cases: growth of human tumour cells (NCI), 48 h
The subject of test [1] is HCT-15 colon.
The subject of test [2] is SK-MEL-5 melanoma.
Test [3] has as its system RXF 393 renal.
Test [4] deals with EKVX NSCLC.
The subject of test [5] is SW-620 colon.
For test [6], the system named is UACC-62 melanoma.
In test [7] the test system is MDA-MB-231 breast.
The subject of test [8] is SR leukemia.
Test [9] relates to OVCAR-3 ovarian.
The test system of test [10] is UACC-257 melanoma.
In test [11] the test system is NCI-H226 lung.
Test [12] relates to 786-0 renal.
Test [13] deals with SNB-19 CNS.
The test system of test [14] is SF-268 CNS.
For test [15], the system named is RPMI-8226 leukemia.
In test [16] the test system is SF-295 CNS.
Test [17] deals with HOP-62 NSCLC.
Test [18] relates to ACHN renal.
Test [19] relates to HOP-92 NSCLC.

Consider `COC(=O)N/N=C(\c1ccccc1)c1ccc(OC)cc1`, for which the TGI in test [1], in test [2], in test [3], in [4], in test [5] and in test [6] was > 100 µM throughout. Further, the TGI in [7], in [8], in test [9], in test [10], in test [11] and in [12] was > 100 µM each time. For the same molecule, the TGI in test [13], in test [14] and in test [15] was > 100 µM throughout.

Regarding `COC(=O)c1ccc(/C=C2\Oc3cc(O)ccc3C2=O)cc1`, the TGI was > 100 µM in [1]; > 100 µM in [2]; 77.3 µM in [3]; > 100 µM in [16]; > 100 µM in test [4]; > 100 µM in test [17]. The TGI in test [5], in [6], in test [18], in test [7], in [8] and in test [9] was > 100 µM each time. The TGI in [10], in test [11], in test [12], in test [13], in test [14] and in test [15] was > 100 µM throughout.

For `C[N+](C)(C)CCOP(=O)([O-])OCCNC(=O)c1ccc2ccccc2c1`, the TGI in test [1], in test [2], in [3], in [16], in [4] and in [17] was > 100 µM in each case. Moreover, the TGI in test [5], in [6], in [18], in [7], in [8] and in test [9] was > 100 µM each time. Also, the TGI in test [10], in test [11], in test [12], in test [13], in test [14] and in [15] was > 100 µM throughout.

For `CC(C)[C@@H]1OC(=O)[C@@H](C)NC(=O)[C@@H]2CCCN2C1=O` (cyclo([Hiv]-Pro-[dA])), the TGI in [1], in test [2], in [3], in test [16], in [4] and in test [17] was > 100 µM in each case. The TGI in test [5], in test [6], in test [18], in test [7], in test [8] and in test [9] was > 100 µM each time. In addition, the TGI in [10], in test [11], in test [12], in [13], in test [19] and in test [14] was > 100 µM in each case.

For `Nc1c(Br)cc(-c2nc3ccccc3s2)cc1Br`, the TGI in test [1], in [2], in [3], in test [16], in [4] and in test [17] was > 100 µM each time. The TGI in test [5], in test [6], in test [18], in test [7], in test [8] and in test [9] was > 100 µM in each case. Besides, the TGI in test [10], in test [11], in test [12], in [13], in [19] and in test [14] was > 100 µM throughout.

As for `C=C1CC(C)(COc2ccc3c(C)cc(=O)oc3c2)OC1=O` (centres undefined), the TGI in [1] was found to be 4.23 µM; in test [2], 3.37 µM; in [16], 16.3 µM; in test [4], 17.8 µM; in [17] it was 28.4 µM; in test [5], 3.09 µM. Also, the TGI in [6] is 4.8 µM; in test [18], 7.37 µM; in test [7], 15.5 µM; in [8], 4.33 µM; in test [9] it was 11 µM; in test [10], 4.35 µM. In addition, the TGI in test [11] came out at 26.2 µM; in [12] it was 5.65 µM; in test [13], 28.4 µM; in [19], 3.25 µM; in test [14], 20.2 µM; in test [15], 2.57 µM.

For `CSc1ccc(/C=C2\N=C(c3ccccc3)N(/N=C3\C(=O)Nc4ccccc43)C2=O)cc1`, the TGI in [1], in test [2], in test [3], in [16], in test [4] and in test [17] was > 100 µM each time. In addition, the TGI in test [5], in test [6], in test [18], in test [7], in test [8] and in [9] was > 100 µM throughout. Further, the TGI in [10], in [12], in test [13], in [19] and in test [14] was > 100 µM throughout.

Take `O=C(NNC(=O)c1ccccc1O)c1ccco1`: the TGI in test [1], in test [2], in test [3], in test [16], in test [4] and in test [17] was > 100 µM each time. The TGI in test [5], in test [6], in test [7], in test [8], in test [9] and in test [10] was > 100 µM in each case. In addition, the TGI in [11], in test [12], in [13], in [14] and in test [15] was > 100 µM in each case.
